Results from paper PMC8577775, “Small molecule allosteric inhibitors of RORγt block Th17-dependent inflammation and associated gene expression in vivo” (PLoS ONE, 2021).

How the values were obtained:
[1] = system: Bclxl expression in the thymus; assay: Bclxl expression in thymus after oral dosing (QPCR); format: in vivo, mouse; conditions: 100 mg/kg PO, C57Bl/6 female mice; S5 Fig
Procedure: Supplementary file pone.0248034.s009.tif: S5 Fig RORγt inhibitors reduce Bclxl expression in thymus of rodents. C57Bl/6 female mice were dosed PO with 100 mg/kg Compound 1, 2 or 3. Thymic tissues were collected from separate cohorts at 2, 8, 16 and 24 hours post-dose (n = 3 mice/timepoint). RNA was extracted from thymic tissues and Bclxl expression measured by QPCR. […] Time zero (‘0’) used as normalization timepoint and set to 1.0 RQ and mean set at 100% for % inhibition calculation. One-way ANOVA with Bonferroni correction for multiple comparisons used for statistical significance calculations. (TIF) Click here for additional data file.

[2] = system: IMQ-induced skin inflammation in Balb/c mice; assay: Imiquimod (IMQ)-induced skin inflammation model; format: in vivo, mouse; conditions: for ear thickness: IMQ vehicle 0.21 ± 0.03 mm
Procedure: For IMQ-induced skin inflammation, wild-type (WT) Balb/c female mice, 5–8 weeks of age, were purchased from Charles River Laboratories. All mice were housed in pathogen-free conditions at Bristol Myers Squibb (Cambridge, MA). Aldara cream containing 5% imiquimod (Patterson Veterinary Supply, Inc; Devens, MA) was applied to the ears daily (11–14 mg) for 3 days. Mice were treated twice daily (BID) on days 1–4 per os (PO) with vehicle (0.5% methylcellulose/0.25% Tween80) or RORγt inhibitors at indicated doses immediately prior to Aldara application. Ear thickness was measured using micro-calipers. Tissues were harvested on day 4, 2 hours following the last compound dose. Naïve mice are completely untreated, receiving neither control vehicle for IMQ nor Compound.
For RNA isolation & gene expression, ears are collected on day 4 in RNAlater (Qiagen) and stored at 4°C until processed. Ears were homogenized using Procellys 24 homogenizer & hard tissue homogenizing beads (Bertin Instruments), 2 cycles of 30 seconds @ 6000 rpm in RLT lysis buffer according to manufacturer’s instructions. RNA was isolated using RNAeasy Plus MiniPrep columns (Qiagen) and cDNA generated using SuperScript VILO cDNA Synthesis kit (Invitrogen). Gene expression was quantified using TaqMan Fast Master Mix & and TaqMan FAM-MGB probe sets (Applied Biosystems): Gapdh, Mm99999915_g1, Il17a, Mm00439618_m1, Il17f, Mm00521423_m1, Il22, Mm01226722_g1 & Bclxl, Mm00437783_m1. QPCR reactions were run on QuantStudio 7 instrument. Relative quantification and fold changes were calculated using ddCT values against Gapdh and normalized to control-treated animals. For PDAC xenografts, RNA was isolated from tumor sections using Qiagen RNeasy kit (cat#74106), then cDNA was prepared using 2 μg of RNA and the high capacity RNA to cDNA kit (Applied Biosystems, cat#4387406) as per manufacturer’s instructions. Biomarker expression was determined using Taqman gene expression probes (S1 Table) and Universal master mix (ThermoFisher Scientific cat#4305719) with expression levels normalized to Gapdh.
For cytokine production, ears are removed, split in half using forceps and floated, dermis side-down, in DMEM media (Gibco) and incubated at 37° C for 24 hours. Following incubation, media was removed and cytokine production assessed by Luminex assay (Bio-Rad Laboratories).

PDAC PDO model T031P [3] = assay: In vitro organoid formation assay (CellTiter-Glo 3D); format: cell-based; conditions: Homo sapiens, PDO model not named in the sentence (Fig 8B: T020P and T031P)
Procedure: Patient derived organoids were established as previously described. Briefly, PDX tumor chunks were minced then enzymatically digested into single cells by using a tumor dissociation Kit (Miltenyi, Cat# 130-095-929). Mouse and human cells were separated through magnetic separation, and isolated tumor cells were cultured on Matrigel-coated dishes. Organoid cultures were maintained by growing on Matrigel in human complete maintenance media: Advanced DMEM/F12 media (Life Technology, Cat# 12634028), 10 mM HEPES (Life Technology, Cat# 15630–080), 1X Glutamax (Life Technology, Cat# 35050–061), 1X Antibiotic-Antimycotic (Life Technology, Cat# 15240–062), 10 mM Nicotinamide (Sigma-Aldrich, Cat# N0636-500G), 250 ng/mL R-Spondin-1 (Peprotech, Cat# 120–38), 100 ng/mL Noggin (Peprotech, Cat# 120-10C), 50 ng/mL EGF (Peprotech, Cat# AF-100-15), 100 ng/mL FGF10 (Peprotech, Cat# 100–26), […] (Sigma-Aldrich, Cat# G9020), 500 nM A83-01 (Sigma, Cat# SML0788), 20 μM Y-27632 (LC Laboratories, Cat# Y-5301), 1X B27 (Life Technology, Cat# 12587010), 10 ng/mL Wnt3a (R&D Systems, Cat# 5036-WN-010), 0.1% Methylcelluose (R&D Systems, Cat# HSC001) and Plasmocin (Invivogen, Cat# Ant-mpp) and were passaged every 10–14 days. Organoids were isolated from Matrigel (Corning, Cat# 08-774-406) in a cell recovery solution (Corning, Cat# CB-40253). Spheroid clusters were then dissociated into a single cell suspension with TrypLE (Gibco, Cat# 12605). […]
(§1) Organoids were isolated and dissociated as described above. Cell numbers were counted by trypan blue exclusion and 5000 cells per well were plated on the Matrigel coated and pre-warmed 96-well plates. […] 100 μl of CellTiter-Glo® 3D reagent (Promega cat# G9682) was added to each well after desired time points and luminescence signal measured after 30 minutes.
(§2) Supplementary file pone.0248034.s010.tif: S6 Fig Schematic of Patient-derived organoids (PDO) growth & formation assays. […] After the indicated treatment schedule organoid growth or formation was assessed by CTG assay. […]

PDAC PDO model T031P [4] = assay: In vitro organoid growth assay (CellTiter-Glo 3D), T031P; format: cell-based, human; conditions: Homo sapiens, 72 h, treated 3 days post-plating
Procedure: (§3) Patient derived organoids were established as previously described. Briefly, PDX tumor chunks were minced then enzymatically digested into single cells by using a tumor dissociation Kit (Miltenyi, Cat# 130-095-929). Mouse and human cells were separated through magnetic separation, and isolated tumor cells were cultured on Matrigel-coated dishes. […]
as §1, §2

PDAC PDO model T020P = assay: In vitro organoid growth assay (CellTiter-Glo 3D), T020P; format: cell-based, human; conditions: Homo sapiens, 72 h; treated 3 days post-plating; T020P
Procedure: as §3, §1, §2

[5] = system: human and mouse xenograft tumor growth; design: method as in PMID 30955884; conditions: modulation of RORγt activity; cited from earlier work
[6] = system: KP/C pancreatic tumors in C57Bl/6 mice; assay: In vivo tumor growth suppression, KP/C mouse model; conditions: single agent vs vehicle; 28 days of dosing
Procedure: Pancreatic tumor chunks from KP/C mice [20] on C57Bl/6 background were inoculated subcutaneously in the flank of syngeneic mice. […] Tumor volumes and body weight were measured twice each week.
To test whether inhibition of RORγt can lead to tumor growth inhibition we utilized the Kras^G12D/+/Trp53^null/Pdx1-cre (KP/C) mouse model of pancreatic cancer [20]. C57Bl/6 mice were inoculated in the flank with KP/C tumor chunks and enrolled in the study when the average tumor volume reached 200 mm^3. […] To evaluate target engagement, we examined changes in expression of a subset of potential RORγt target genes in tumor samples.

[7] = system: MOG35-55-induced EAE in C57BL/6 mice; assay: Experimental autoimmune encephalomyelitis (EAE) model; format: in vivo, mouse; conditions: 3 mg/kg QD
Procedure: EAE studies were conducted at Hooke Laboratories. WT female C57BL/6 mice (Taconic Labs) 9 weeks of age were inoculated on day 0 with MOG35-55 peptide (Hooke Kit™ MOG35-55/CFA Emulsion PTX) (EK-2110, Hooke Laboratories, Lawrence MA) followed by intraperitoneal (IP) injections of pertussis toxin at 2 and 24 hours. Mice were treated twice daily (BID, starting at day 1) per os (PO) with vehicle (0.5% MC/0.25% Tween80) or RORγt inhibitors at indicated doses. FTY720 (Gilenya) was dosed once daily (QD) at 3 mg/kg starting at day 1. EAE clinical scores were evaluated daily and scored from 0–5 according to Hooke Lab EAE scoring guidelines http://hookelabs.com/services/cro/eae/MouseEAEscoring.html. Mean clinical scores & body weight loss were assessed and statistical significance calculated by Wilcoxon’s non-parametric or 2-tailed Student’s t-test, respectively. All studies performed were approved in accordance with the Institutional Animal Care and Use Committee of Bristol Myers Squibb and complied according to Bristol Myers Squibb guidelines.

psoriasis patients = system: psoriasis patients; design: method as in PMID 29936103; conditions: cited from earlier work
[8] = system: plaque psoriasis patients; conditions: cited from earlier work

Question: For `O=C(O)[C@@H]1CCN(c2nn(C(=O)c3c(Cl)cccc3C(F)(F)F)c3cccc(F)c23)C[C@H]1O` [Compound 1], which “Bclxl expression in the thymus” value [1] is on record?
Answer: modulation of Bclxl expression in the thymus

Question: What about the ear thickness ([2]; day 4, 45 mg/kg PO) of the same molecule?
Answer: 0.17 ± 0.02 mm

Question: And the ear thickness ([2]; day 4, 75 mg/kg PO)?
Answer: 0.16 ± 0.008 mm

Question: What about the “Th17-cytokine gene expression (Il17a, Il17f, Il22) in ear skin” value ([2]; day 4, all dose levels tested (30, 45, 75 mg/kg PO)) of the same molecule?
Answer: reduced Th17-cytokine gene expression at all dose levels tested

Question: What about the “IMQ-induced IL-17A cytokine production in ear tissues” value ([2]; ear tissue floats cultured 24 hours ex vivo, Luminex) of the same molecule?
Answer: reduced IMQ-induced IL-17A cytokine production

Question: For `OC(c1ccc(-c2ccc(CN3CCN(Cc4ccncc4)CC3)cc2)c(F)c1)(C(F)(F)F)C(F)(F)F` [SR2211, reference compound], which IC50 (PDAC PDO model T031P [3]) is on record?
Answer: ~1000 nM

Question: What about the IC50 (PDAC PDO model T031P [4]) of the same molecule?
Answer: ~3000 nM

Question: And the IC50 (PDAC PDO model T020P)?
Answer: ~3000 nM

Question: What about the “human and mouse xenograft tumor growth” value [5] of the same molecule?
Answer: sufficient to inhibit

Question: For `N.N.[Cl][Pt][Cl]` [cisplatin, reference compound], which tumor volume [6] is on record?
Answer: significantly reduced

Question: Which results are given for `CCCCCCCCc1ccc(CCC(N)(CO)CO)cc1` [FTY720, reference compound]?
Answer: disease onset ([7]; vehicle day 12): 20 days; EAE clinical score (0-5) ([7]; vehicle peak 3.08 ± 0.28): 0.54 ± 0.234

Question: Which “reduction of production of IL-17A, IL-17F, IL-22 and TNFα” value (psoriasis patients; Week 4) does the source give for `CCOc1cc([C@@H](CS(C)(=O)=O)N2C(=O)c3cccc(NC(C)=O)c3C2=O)ccc1OC` [Otezla] here?
Answer: 40–50%

Question: What about the PASI-75 response rate (psoriasis patients; Week 16) of the same molecule?
Answer: approximately 30%

Question: What does the source list for `CCS(=O)(=O)c1ccc(CNC(=O)c2cnc3c(c2)CN(C[C@H]2CC[C@H](C(F)(F)F)CC2)[C@H]3C(C)C)nc1` [VTP-43742]?
Answer: PASI-75 response rate ([8]; Week 4): 25–30%; reduction in IL-17A and IL-17F levels in plasma [8]: 50–75%

Question: With `O=C(O)[C@@H]1CCC(c2nn(C(=O)c3c(Cl)cccc3C3CC3)c3cccc(F)c23)=C[C@H]1O` [Compound 2] as the molecule, how does the “Bclxl expression in the thymus” value [1] read?
Answer: modulation of Bclxl expression in the thymus

Question: What about the “Th17-dependent gene expression and inflammation” value ([2]; oral administration, S4 Fig) of the same molecule?
Answer: inhibition of Th17-dependent gene expression and inflammation
